Laboratory results as given in US20240252668A1, “ANTIBODY DRUG CONJUGATES AND METHODS FOR MAKING THEREOF” (Novartis AG, priority 2021, published 2024).
Read-outs that look alike come from different tables or passages of the source. Starred links: 1 amine or outer side, 2 acyl side, 3 side chain; linkers in the order of their positions; H or OH if unused. Positions of bridges follow the written chain, without caps; N, C: chain ends. Non-standard residues stand in square brackets, D forms with d. Residues, ends and D or L forms follow the SMILES beside them. *: point of attachment. Leu(3R-O(AcLeu(3R-OH))) = CC(=O)N[C@H](C(=O)O[C@H](C(C)C)[C@H](N)C(=O)O)[C@H](O)C(C)C; Leu(3R-OH,Nα-propionyl) = CCC(=O)N[C@H](C(=O)*)[C@H](O)C(C)C; X1 = CC(C)[C@@H](O[*:3])[C@H](N[*:1])C(=O)[*:2]; NMeT = CN[C@H](C(=O)O)[C@@H](C)O; dPhLac = O=C(O)[C@H](O)Cc1ccccc1; X2 = CC(C)C=C(N[*:1])C(=O)[*:2]; NMeA = CN[C@@H](C)C(=O)O; NMeDha = C=C(NC)C(=O)O

How the values were obtained:
[1] = system: 92.1 uveal melanoma cell line (heterozygous GNAQ Q209L); assay: Cell proliferation assay (resazurin cell viability), 92.1 cell line; type: cell-based
Source text: (§1) Cell Proliferation Assays with Chromodepsins (compounds (A1) and 2-15): Cell line descriptions: 92.1—uveal melanoma cell line, derived from primary tumor, harboring heterozygous GNAQ Q209L mutation. Purchased from Sigma Aldrich. MP41 (CRL-3297) -uveal melanoma cell line, derived from primary tumor, harboring heterozygous GNA11 Q209L mutation. Purchased from ATCC. A375—skin melanoma cell line, harboring homozygous BRAF V600E mutation. Origin: Cancer Cell Line Encyclopedia (CCLE). SK-MEL-30—skin melanoma cell line, harboring heterozygous NRAS Q61K mutation. Origin: CCLE.
(§2) Cells were cultured in 96-well plates in a total volume of 100 μL at 37° C., 5% CO2 and 95% relative humidity. All cell lines were cultured in RPMI Medium (RPMI 1640 w/o L-glutamine, Bioconcept ref. 1-41F01-I) except A375, DMEM medium (DMEM high glucose (4.5 g/L), Bioconcept, ref. 1-26F01-I), and supplemented with 10% FCS (Bioconcept, ref. 2-01F30-I). Two to three thousand cells were seeded in 96-well plates per well the night before they were treated with compounds (concentration range: from 260 nM to 0.036 nM with ⅓ dilution steps; for 7 the concentration range was increased from 10000 nM to 1.52 nM with ⅓ dilution steps). Cell viability was measured by addition of 10 ul of resazurin per well after 96 hours of treatment. Results were analyzed and plotted using GraphPad Prism 9.0.1.

[2] = system: MP41 uveal melanoma cell line (heterozygous GNA11 Q209L); assay: Cell proliferation assay (resazurin cell viability), MP41 cell line; type: cell-based
Source text: as §1, §2

[3] = system: A375 skin melanoma cell line (homozygous BRAF V600E); assay: Cell proliferation assay (resazurin cell viability), A375 cell line; type: cell-based
Source text: as §1, §2

[4] = system: SK-MEL-30 skin melanoma cell line (heterozygous NRAS Q61K); assay: Cell proliferation assay (resazurin cell viability), SK-MEL-30 cell line; type: cell-based
Source text: as §1, §2

[5] = system: MDCK-LE monolayers; assay: Cell-based transwell assay with MDCK-low efflux monolayers (passive permeability); type: in vitro ADME; conditions: MDCK-LE monolayers
Method: Cell-based transwell assays with MDCK-low efflux monolayers: Compounds (A1) and 2-15 were tested in MDCK cell sub-clones with low effluxt ransporter activity (MDCK-LE) in order to determine their passive permeability. The incubations were performed at a contract research organization as described previously.

[6] = EPSA determination by supercritical fluid chromatography; type: physicochemical; conditions: modified EPSA method, SFC
Method: […] by supercritical fluid chromatography: Compounds (A1) and 2-15 were tested by supercritical fluid chromatography (SFC) to determine their ESAPSA values. Samples were analyzed using a Chirex 3014 column ([…], 3×100 mm column, 100 Å pore size; Phenomenex. The starting conditions were 5% methanol containing 20 mM ammonium formate and 95% scCO2. The gradient was increased linearly to 60% methanol containing 20 mM ammonium formate in 4.5 min.

[7] = Plasma incubation of compound (A1), human plasma, LC-MS/MS quantification; type: in vitro ADME; conditions: formed in incubation of (A1) in human plasma, 37° C.
Method: Plasma incubations and sample preparation: Compound (A1) was spiked at 5.00 μg/mL in PBS and pooled mixed gender mouse (CD-1), cynomolgus monkey and human plasma. Samples were incubated on a Thermomixer (Eppendorf) at 37° C. while shaking at 650 rpm. Aliquots of 50 μL (n=3) were drawn from each incubation tube following 0, 0.5, 1, 2, 4, 8 and 24 h of incubation. 50 μL of sample was quenched with 200 μL of acetonitrile, containing both generic internal standards, glybenclamide and warfarin, at 62.5 ng/mL. Samples were briefly vortexed and centrifuged for 20 min at 4000 rpm and 4° C. 200 μL of the supernatant was transferred into a clean 800 μL 96-well sample collection plate.
Quantification by LC-MS/MS: LC-MS/MS analysis was conducted with a Shimadzu Nexera UPLC coupled to AB Sciex QTRAP 6500 using the SRM acquisition mode (3 μL injected). Samples were analyzed using a ACE 3° C.18-PFP (3 μM, 2.1×50 mm column) at a column temperature of 65° C. The starting conditions were 97% H20 containing 0.1% formic acid and 3% CH3CN containing 0.1% formic acid. Quantification of compound (A1) and 5 was performed by MS-MRM (electrospray in positive mode, ion spray voltage: 5000 V, source temperature: 500° C., curtain gas: 25 psig, nebulizer gas: 60 psig, turbo ion spray gas: 40 psig, mass range: low, resolution Q1/Q3: unit, collision gas: medium, dwell time: 12 msec). Separate calibration curves were established with calibration standards of compounds (A1) and 5 at concentrations of 10.0, 5.00, 2.50, 1.00, 0.500, 0.100, 0.050 and 0.010 μg/mL respectively. Peak integration and quantification was conducted with the AB Sciex Analyst software (v.1.7) using the Analyst Classic algorithm. […]

[8] = 92.1 (GNAQ Q209L), 96 hours of treatment, read-out: GI50 by cell line, 92.1
[9] = 92.1 cell line, average of Rep. 1 and 2, read-out: GI50 92.1 Average
[10] = 92.1 cell line, replicate 1, read-out: GI50 92.1 Rep. 1
[11] = 92.1 cell line, replicate 2, read-out: GI50 92.1 Rep. 2
[12] = MP41 (GNA11 Q209L), 96 hours of treatment, read-out: GI50 by cell line, MP41
[13] = MP41 cell line, average of Rep. 1 and 2, read-out: GI50 MP41 Average
[14] = MP41 cell line, replicate 1, read-out: GI50 MP41 Rep. 1
[15] = MP41 cell line, replicate 2, read-out: GI50 MP41 Rep. 2
[16] = A375 (GNAQ/11 wild type), 96 hours of treatment, read-out: GI50 by cell line, A375
[17] = A375 cell line, average of Rep. 1 and 2, read-out: GI50 A375 Average
[18] = A375 cell line, replicate 1, read-out: GI50 A375 Rep. 1
[19] = A375 cell line, replicate 2, read-out: GI50 A375 Rep. 2
[20] = SK-MEL-30 (GNAQ/11 wild type), 96 hours of treatment, read-out: GI50 by cell line, SK-MEL-30
[21] = SK-MEL-30 cell line, average of Rep. 1 and 2, read-out: GI50 SK-MEL-30 Average
[22] = SK-MEL-30 cell line, replicate 1, read-out: GI50 SK-MEL-30 Rep. 1
[23] = SK-MEL-30 cell line, replicate 2, read-out: GI50 SK-MEL-30 Rep. 2

`C=C1C(=O)N[C@@H](C)C(=O)N(C)[C@@H](C)C(=O)N[C@@H]([C@H](OC(=O)[C@@H](NC(C)=O)[C@H](O)C(C)C)C(C)C)C(=O)N(C)[C@@H]([C@@H](C)OC)C(=O)O[C@H](C)[C@H](NC(C)=O)C(=O)O[C@H](Cc2ccccc2)C(=O)N1C` [Compound 13] (Ac-T[dPhLac][NMeDha]A[NMeA][Leu(3R-O(AcLeu(3R-OH)))][NMeT](Me); ester 1-C) gave a GI50 [1, 8] of 0.0157 µM, a GI50 [1, 9] of 0.0157 µM and a GI50 [1, 10] of 0.0101 µM. For the same molecule, the GI50 [1, 11] was 0.0214 µM, the GI50 [2, 12] was 0.006 µM and the GI50 [2, 13] was 0.006 µM. The GI50 [2, 14] was 0.0036 µM, the GI50 [2, 15] was 0.00831 µM and the GI50 [3, 16] was over 0.26 µM. It also gave a GI50 [3, 17] of over 0.26 µM, a GI50 [3, 18] of over 0.26 µM and a GI50 [3, 19] of over 0.26 µM. It also gave a GI50 [4, 20] of over 0.26 µM, a GI50 [4, 21] of over 0.26 µM and a GI50 [4, 22] of over 0.26 µM. The GI50 [4, 23] was over 0.26 µM, the “% Fraction absorbed” value [5] was 46.5% and the “% Recovery” value [5] was 85%. The “Papp A − B” value [5] was 2.69 ×10⁻⁶ cm/s and the EPSA [6] was 95 A^2.

In the case of `C=C(C(=O)N[C@@H](C)C(=O)N(C)[C@@H](C)C(=O)N[C@H](C(=O)N(C)[C@H](C(=O)O)[C@@H](C)OC)[C@H](OC(=O)[C@@H](NC(=O)CC)[C@H](O)C(C)C)C(C)C)N(C)C(=O)[C@@H](Cc1ccccc1)OC(=O)C(=CC(C)C)NC(C)=O` [Compound 5] (Ac-[X2][dPhLac][NMeDha]A[NMeA][X1](Leu(3R-OH,Nα-propionyl))[NMeT](Me)-OH), the GI50 [1, 8] is reported as over 0.26 µM, the GI50 [1, 9] is reported as over 0.26 µM and the GI50 [1, 10] is reported as over 0.26 µM. For the same molecule, the GI50 [1, 11] was over 0.26 µM, the GI50 [2, 12] was over 0.26 µM and the GI50 [2, 13] was over 0.26 µM. For the same molecule, the GI50 [2, 14] was over 0.26 µM, the GI50 [2, 15] was over 0.26 µM and the GI50 [3, 16] was over 0.26 µM. The GI50 [3, 17] was over 0.26 µM, the GI50 [3, 18] was over 0.26 µM and the GI50 [3, 19] was over 0.26 µM. For the same molecule, the GI50 [4, 20] was over 0.26 µM, the GI50 [4, 21] was over 0.26 µM and the GI50 [4, 22] was over 0.26 µM. The GI50 [4, 23] was over 0.26 µM, the “% Fraction absorbed” value [5] was 4.2% and the “% Recovery” value [5] was 86%. The “Papp A − B” value [5] was 0.27 ×10⁻⁶ cm/s, the EPSA [6] was 229 A^2 and the “Concentration of 5, Aliquot 1” value ([7]; 0 h) was “BLQ”. The “Concentration of 5, Aliquot 2” value ([7]; 0 h) was “BLQ”, the “Concentration of 5, Aliquot 3” value ([7]; 0 h) was “BLQ” and the “Concentration of 5, Aliquot 1” value ([7]; 0.5 h) was 61.3 ng/mL. For the same molecule, the “Concentration of 5, Aliquot 2” value ([7]; 0.5 h) was 67.3 ng/mL, the “Concentration of 5, Aliquot 3” value ([7]; 0.5 h) was 67.1 ng/mL and the “Mean concentration of 5” value ([7]; 0.5 h) was 65.2 ng/mL. The “Concentration of 5, Aliquot 1” value ([7]; 1 h) was 117 ng/mL, the “Concentration of 5, Aliquot 2” value ([7]; 1 h) was 123 ng/mL and the “Concentration of 5, Aliquot 3” value ([7]; 1 h) was 142 ng/mL. The “Mean concentration of 5” value ([7]; 1 h) was 127 ng/mL, the “Concentration of 5, Aliquot 1” value ([7]; 2 h) was 255 ng/mL and the “Concentration of 5, Aliquot 2” value ([7]; 2 h) was 289 ng/mL. For the same molecule, the “Concentration of 5, Aliquot 3” value ([7]; 2 h) was 317 ng/mL, the “Mean concentration of 5” value ([7]; 2 h) was 287 ng/mL and the “Concentration of 5, Aliquot 1” value ([7]; 4 h) was 615 ng/mL. For the same molecule, the “Concentration of 5, Aliquot 2” value ([7]; 4 h) was 647 ng/mL, the “Concentration of 5, Aliquot 3” value ([7]; 4 h) was 677 ng/mL and the “Mean concentration of 5” value ([7]; 4 h) was 646 ng/mL. For the same molecule, the “Concentration of 5, Aliquot 1” value ([7]; 8 h) was 1370 ng/mL, the “Concentration of 5, Aliquot 2” value ([7]; 8 h) was 1480 ng/mL and the “Concentration of 5, Aliquot 3” value ([7]; 8 h) was 1570 ng/mL. The “Mean concentration of 5” value ([7]; 8 h) was 1470 ng/mL, the “Concentration of 5, Aliquot 1” value ([7]; 24 h) was 3140 ng/mL and the “Concentration of 5, Aliquot 2” value ([7]; 24 h) was 2820 ng/mL. For the same molecule, the “Concentration of 5, Aliquot 3” value ([7]; 24 h) was 3140 ng/mL and the “Mean concentration of 5” value ([7]; 24 h) was 3030 ng/mL.
